Measurements from patent publication US8852554B2, “Radiolabelled PDE10 ligands” (Janssen Pharmaceutica NV, priority 2009, dated 2014).
Where a name gives a salt, the structure may show the parent alone.

Columns and labels:
[1] = target: T1, Rat recombinant PDE10A (rPDE10A) (Rattus norvegicus, UniProt Q9QYJ6); test: rat PDE10A2-cAMP inhibition, in vitro SPA assay; assay type: biochemical; settings: 60 nM cAMP substrate
T1 construct: made in house; host or cells: Sf9 insect cells (baculovirus)
T1 sequence (Q9QYJ6 1-794): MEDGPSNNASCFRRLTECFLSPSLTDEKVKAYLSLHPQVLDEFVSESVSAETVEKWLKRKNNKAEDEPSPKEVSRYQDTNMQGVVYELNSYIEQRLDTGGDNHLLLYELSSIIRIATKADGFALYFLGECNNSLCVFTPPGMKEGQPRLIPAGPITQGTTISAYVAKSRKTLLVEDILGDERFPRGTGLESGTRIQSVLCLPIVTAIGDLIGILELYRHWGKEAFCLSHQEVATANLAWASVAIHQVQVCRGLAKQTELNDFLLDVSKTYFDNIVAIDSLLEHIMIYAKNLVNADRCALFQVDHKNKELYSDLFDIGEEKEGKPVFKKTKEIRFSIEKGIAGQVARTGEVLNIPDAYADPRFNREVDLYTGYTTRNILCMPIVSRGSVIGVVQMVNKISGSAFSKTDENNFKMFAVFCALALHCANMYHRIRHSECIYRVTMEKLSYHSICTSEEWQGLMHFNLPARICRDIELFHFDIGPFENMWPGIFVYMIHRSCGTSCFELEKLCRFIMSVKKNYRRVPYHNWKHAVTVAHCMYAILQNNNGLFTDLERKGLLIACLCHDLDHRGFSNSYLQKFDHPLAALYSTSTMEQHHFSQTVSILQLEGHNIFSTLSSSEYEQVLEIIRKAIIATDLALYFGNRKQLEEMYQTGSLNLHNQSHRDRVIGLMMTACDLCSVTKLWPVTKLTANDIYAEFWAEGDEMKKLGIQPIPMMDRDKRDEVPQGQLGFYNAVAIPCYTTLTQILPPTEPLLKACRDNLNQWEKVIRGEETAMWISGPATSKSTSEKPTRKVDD
Procedure: Rat recombinant PDE10A (rPDE10A) was expressed in Sf9 cells using a recombinant rPDE10A baculovirus construct. Cells were harvested after 48 h of infection and the rPDE10A protein was purified by metal chelate chromatography on Ni-sepharose 6FF. Tested compounds were dissolved and diluted in 100% DMSO to a concentration 100 fold of the final concentration in the assay. Compound dilutions (0.4 μl) were added in 384 well plates to 20 μl of incubation buffer (50 mM Tris pH 7.8, 8.3 mM MgCl2, 1.7 mM EGTA). 10 μl of rPDE10A enzyme in incubation buffer was added and the reaction was started by addition of 10 μl substrate to a final concentration of 60 nM cAMP and 0.008 μCi 3H-cAMP. The reaction was incubated for 60 minutes at room temperature. […] After sedimentation of the beads during 30 minutes, the radioactivity was measured in a Perkin Elmer Topcount scintillation counter and results were expressed as cpm. For blanc values the enzyme was omitted from the reaction and replaced by incubation buffer. Control values were obtained by addition of a final concentration of 1% DMSO instead of compound.

Row | melting point | IC50 [1] | Structure (SMILES) | further results
1 | 126.64 °C | – | COc1ccc(COc2ccc(-c3nn(CCCF)cc3-c3ccncc3)cc2)nc1 (as salt: succinate) [Compound B14, 2-[[4-[1-(3-fluoropropyl)-4-(4-pyridinyl)-1H-pyrazol-3-yl]phenoxy]methyl]-5-methoxy-pyridine.0.5 succinate] | –
2 | 178.95 °C | – | COc1cccnc1COc1ccc(-c2nn(CCF)cc2-c2ccncc2)cc1 (as salt: succinate) [Compound B16, 2-[[4-[1-(2-fluoroethyl)-4-(4-pyridinyl)-1H-pyrazol-3-yl]phenoxy]methyl]-3-methoxy-pyridine.succinate] | –
3 | 114.18 °C | – | FCCOc1cccnc1COc1ccc(-c2nn(CCF)cc2-c2ccncc2)cc1 (as salt: succinate) [Compound B17, 3-(2-fluoroethoxy)-2-[[4-[1-(2-fluoroethyl)-4-(4-pyridinyl)-1H-pyrazol-3-yl]phenoxy]methyl]pyridine.succinate] | –
4 | – | 14.5 nM | COc1ccc(COc2ccc(-c3nn(CCCF)cc3-c3ccncc3)cc2)nc1 [Compound B14, 2-[[4-[1-(3-fluoropropyl)-4-(4-pyridinyl)-1H-pyrazol-3-yl]phenoxy]methyl]-5-methoxy-pyridine.0.5 succinate] | –
5 | – | 3.72 nM | COc1cccnc1COc1ccc(-c2nn(CCF)cc2-c2ccncc2)cc1 [Compound B16, 2-[[4-[1-(2-fluoroethyl)-4-(4-pyridinyl)-1H-pyrazol-3-yl]phenoxy]methyl]-3-methoxy-pyridine.succinate] | –
6 | – | 3.8 nM | FCCOc1cccnc1COc1ccc(-c2nn(CCF)cc2-c2ccncc2)cc1 [Compound B17, 3-(2-fluoroethoxy)-2-[[4-[1-(2-fluoroethyl)-4-(4-pyridinyl)-1H-pyrazol-3-yl]phenoxy]methyl]pyridine.succinate] | –
7 | – | 16.2 nM | FCCn1cc(-c2ccncc2)c(-c2ccc(OCc3ncccc3F)cc2)n1 [Compound B18, 3-fluoro-2-[[4-[1-(2-fluoroethyl)-4-(4-pyridinyl)-1H-pyrazol-3-yl]phenoxy]methyl]-pyridine.1.2 succinate] | –
8 | – | 34.7 nM | FCCn1cc(-c2ccncc2)c(-c2ccc(OCc3ccc(C4CC4)cn3)cc2)n1 [Compound B23, 5-cyclopropyl-2-[[4-[1-(2-fluoroethyl)-4-(4-pyridinyl)-1H-pyrazol-3-yl]phenoxy]methyl]-pyridine] | –
9 | – | 2.95 nM | COc1cccc(COc2ccc(-c3nn(CCF)cc3-c3ccncc3)cc2)n1 [Compound B24, 2-[[4-[1-(2-fluoroethyl)-4-(4-pyridinyl)-1H-pyrazol-3-yl]phenoxy]methyl]-6-methoxy-pyridine.succinate] | –
10 | – | 20.9 nM | CCOc1cccc(COc2ccc(-c3nn(CCF)cc3-c3ccncc3)cc2)n1 [Compound B25, 2-ethoxy-6-[[4-[1-(2-fluoroethyl)-4-(4-pyridinyl)-1H-pyrazol-3-yl]phenoxy]methyl]-pyridine.succinate] | –
11 | – | 4.37 nM | Cc1cnc(COc2ccc(-c3nn(CCF)cc3-c3ccncc3)cc2)c(C)c1C [Compound B28, 2-[[4-[1-(2-fluoroethyl)-4-(4-pyridinyl)-1H-pyrazol-3-yl]phenoxy]methyl]-3,4,5-trimethyl-pyridine.succinate] | –

Further lines, the molecule ahead of its results:

Row | Structure (SMILES) | melting point | IC50 [1] | further results
12 | Cc1cccc(COc2ccc(-c3nn(CCF)cc3-c3ccncc3)cc2)n1 (as salt: hydrochloride) [Compound B1, 2-[[4-[1-(2-fluoroethyl)-4-(4-pyridinyl)-1H-pyrazol-3-yl]phenoxy]methyl]-6-methyl-pyridine.dihydrochloride] | 227.22 °C | – | –
13 | Cc1cccc(COc2ccc(-c3nn(CCCF)cc3-c3ccncc3)cc2)n1 (as salt: hydrochloride) [Compound B2, 2-[[4-[1-(3-fluoropropyl)-4-(4-pyridinyl)-1H-pyrazol-3-yl]phenoxy]methyl]-6-methyl-pyridine.hydrochloride] | 106.51 °C | – | –
14 | FCCn1cc(-c2ccncc2)c(-c2ccc(OCc3cccc(Br)n3)cc2)n1 (as salt: succinate) [Compound B6, 2-bromo-6-[[4-[1-(2-fluoroethyl)-4-(4-pyridinyl)-1H-pyrazol-3-yl]phenoxy]methyl]-pyridine.0.75 succinate] | 108.78 °C | – | –
15 | FCCn1cc(-c2ccncc2)c(-c2ccc(OCc3cccc(C4CC4)n3)cc2)n1 (as salt: succinate) [Compound B8, 2-Cyclopropyl-6-[[4-[1-(2-fluoroethyl)-4-(4-pyridinyl)-1H-pyrazol-3-yl]phenoxy]methyl]-pyridine.succinate] | 91.25 °C | – | –
16 | FCCOc1cccnc1COc1ccc(-c2nn(CC(F)(F)F)cc2-c2ccncc2)cc1 (as salt: succinate) [Compound B10, 3-(2-fluoroethoxy)-2-[[4-[4-(4-pyridinyl)-1-(2,2,2-trifluoroethyl)-1H-pyrazol-3-yl]phenoxy]methyl]-pyridine.succinate] | 140.72 °C | – | –
17 | FCCCn1cc(-c2ccncc2)c(-c2ccc(OCc3ncccc3OCCF)cc2)n1 (as salt: succinate) [Compound B13, 3-(2-fluoroethoxy)-2-[[4-[1-(3-fluoropropyl)-4-(4-pyridinyl)-1H-pyrazol-3-yl]phenoxy]methyl]pyridine.succinate] | 118.38 °C | – | –
18 | Cc1cccc(COc2ccc(-c3nn(CCF)cc3-c3ccncc3)cc2)n1 [Compound B1, 2-[[4-[1-(2-fluoroethyl)-4-(4-pyridinyl)-1H-pyrazol-3-yl]phenoxy]methyl]-6-methyl-pyridine.dihydrochloride] | – | – | pIC50 [1]: 8.6
19 | Cc1cccc(COc2ccc(-c3nn(CCCF)cc3-c3ccncc3)cc2)n1 [Compound B2, 2-[[4-[1-(3-fluoropropyl)-4-(4-pyridinyl)-1H-pyrazol-3-yl]phenoxy]methyl]-6-methyl-pyridine.hydrochloride] | – | – | pIC50 [1]: 7.7
20 | Cc1cnc(COc2ccc(-c3nn(CCF)cc3-c3ccncc3)cc2)c(C)c1 [Compound B3, 2-[[4-[1-(2-fluoroethyl)-4-(4-pyridinyl)-1H-pyrazol-3-yl]phenoxy]methyl]-3,5-dimethyl-pyridine.succinate] | – | 1.62 nM | –
21 | FCCn1cc(-c2ccncc2)c(-c2ccc(OCc3cccc(Br)n3)cc2)n1 [Compound B6, 2-bromo-6-[[4-[1-(2-fluoroethyl)-4-(4-pyridinyl)-1H-pyrazol-3-yl]phenoxy]methyl]-pyridine.0.75 succinate] | – | 9.77 nM | –
22 | FCCn1cc(-c2ccncc2)c(-c2ccc(OCc3cccc(C(F)(F)F)n3)cc2)n1 [Compound B7, 2-[[4-[1-(2-fluoroethyl)-4-(4-pyridinyl)-1H-pyrazol-3-yl]phenoxy]methyl]-6-(trifluoromethyl)-pyridine] | – | 110 nM | –
23 | FCCn1cc(-c2ccncc2)c(-c2ccc(OCc3cccc(C4CC4)n3)cc2)n1 [Compound B8, 2-Cyclopropyl-6-[[4-[1-(2-fluoroethyl)-4-(4-pyridinyl)-1H-pyrazol-3-yl]phenoxy]methyl]-pyridine.succinate] | – | 33.1 nM | –
24 | FCCOc1cccnc1COc1ccc(-c2nn(CC(F)(F)F)cc2-c2ccncc2)cc1 [Compound B10, 3-(2-fluoroethoxy)-2-[[4-[4-(4-pyridinyl)-1-(2,2,2-trifluoroethyl)-1H-pyrazol-3-yl]phenoxy]methyl]-pyridine.succinate] | – | 6.31 nM | –
25 | FCCOc1ccc(COc2ccc(-c3nn(CC(F)(F)F)cc3-c3ccncc3)cc2)nc1 [Compound B11, 5-(2-fluoroethoxy)-2-[[4-[4-(4-pyridinyl)-1-(2,2,2-trifluoroethyl)-1H-pyrazol-3-yl]phenoxy]methyl]-pyridine] | – | 107 nM | –
26 | FCCCn1cc(-c2ccncc2)c(-c2ccc(OCc3ncccc3OCCF)cc2)n1 [Compound B13, 3-(2-fluoroethoxy)-2-[[4-[1-(3-fluoropropyl)-4-(4-pyridinyl)-1H-pyrazol-3-yl]phenoxy]methyl]pyridine.succinate] | – | 13.8 nM | –
27 | N#Cc1ccc(COc2ccc(-c3nn(CCF)cc3-c3ccncc3)cc2)nc1 [Compound B21, 6-[[4-[1-(2-fluoroethyl)-4-(4-pyridinyl)-1H-pyrazol-3-yl]phenoxy]methyl]-3-pyridinecarbonitrile] | – | – | pIC50 [1]: 7.1
